Read-outs that look alike come from different tables or passages of the source.
Legend:
CDK2/cyclin A2 = molecular target: T1, CDK2/cyclin A2 (Homo sapiens, UniProt P24941); experiment: Human CDK2/cyclin A2 inhibitory activity (QS S Assist CDK2/Cyclin A2_FP Kit, IMAP fluorescence polarization); type: biochemical
T1 construct: purchased Carna Biosciences, Inc. QS S Assist CDK2/Cyclin A2_FP Kit
Protocol: Human CDK2/Cyclin A^2 Inhibitory Activity
Each compound was analyzed for CDK2/cyclin A2 inhibitory activity with an assay kit (QS S Assist CDK2/Cyclin A2_FP Kit, available from Carna Biosciences, Inc.). This assay kit determines kinase activity on the basis of the IMAP technology by Molecular Devices. Specifically, the kinase activity is determined through quantification of a variation in fluorescent polarization caused by binding of a kinase-phosphorylated fluorescent substance to an IMAP-binding reagent.
An assay buffer was prepared by 10-fold dilution of the 10× assay buffer attached to the kit with distilled water, and each solution was prepared with the assay buffer. The assay buffer contained 20 mM HEPES (pH 7.4), 0.01% Tween 20, and 2 mM dithiothreitol. A test compound solution was prepared by dilution of the test compound with dimethyl sulfoxide (DMSO) to a concentration 100 times higher than the final concentration and then 25-fold dilution with the assay buffer to a concentration four times higher than the final concentration. An ATP/substrate/Metal solution was prepared by five-fold dilution of the 5×ATP/substrate/Metal solution attached to the kit with the assay buffer. An enzyme solution was prepared by dilution of the CDK2/cyclin A2 attached to the kit with the assay buffer to a concentration twice higher than the final concentration (final concentration of CDK2/cyclin A2: 2.5 ng/well). A detection reagent was prepared by five-fold dilution of 5×IMAP-binding buffer A with distilled water and 400-fold dilution of the IMAP-binding reagent with the diluted buffer.
The test compound solution (5 μL/well) and the ATP/substrate/Metal solution (5 μL/well) were added to a 384-well plate, and the enzyme solution or the assay buffer (10 μL/well) was added to the plate (total amount of the reaction mixture: 20 μL/well) for initiation of enzymatic reaction. […] The reaction was performed at room temperature for 60 minutes, and the detection reagent (60 μL/well) was then added to the plate, followed by further reaction for 30 minutes at room temperature under light shielding conditions. Subsequently, fluorescent polarization was determined with a microplate reader at an excitation wavelength of 485 nm and an emission wavelength of 535 nm.
The percent inhibition of enzyme activity was calculated for each test compound (note: enzyme activity=100% in the case of addition of the enzyme solution and addition of DMSO instead of the test compound solution, whereas enzyme activity=0% in the case of addition of the assay buffer instead of the enzyme solution and addition of DMSO instead of the test compound solution). The percent inhibition of enzyme activity was fitted to a dose-response curve, to determine a 50% inhibitory concentration against CDK2/cyclin A2.
In each table, “+++” corresponds to IC50<10 nM, “++” 10 nM≤IC50<100 nM, and “+” 100 nM≤IC50.

CDK4/cyclin D3 = molecular target: T2, CDK4/cyclin D3 (Homo sapiens, UniProt P11802); experiment: Human CDK4/cyclin D3 inhibitory activity (QS S Assist CDK4/Cyclin D3_FP Kit, IMAP fluorescence polarization); type: biochemical
T2 construct: purchased Carna Biosciences, Inc. QS S Assist CDK4/Cyclin D3_FP Kit
Method in brief: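 Percent inhibition, relative to DMSO with and without enzyme, was curve-fitted to give IC50 from polarization (ex 485, em 535 nm). The 45-min room-temperature reaction used 12.5-25 ng/well enzyme, kit ATP/substrate/metal mix, and HEPES pH 7.4 buffer with Tween20 and DTT, followed by 30-min IMAP binding in the dark.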

[1] = Human CDK2/cyclin A2 inhibitory activity, read-out: CDK2 Activity symbol
[2] = Human CDK4/cyclin D3 inhibitory activity, read-out: CDK4 Activity symbol
[3] = 50% inhibitory concentration against CDK2/cyclin A2, given as class symbol
[4] = 50% inhibitory concentration against CDK4/cyclin D3, given as class symbol

T2 sequence (P11802 whole entry): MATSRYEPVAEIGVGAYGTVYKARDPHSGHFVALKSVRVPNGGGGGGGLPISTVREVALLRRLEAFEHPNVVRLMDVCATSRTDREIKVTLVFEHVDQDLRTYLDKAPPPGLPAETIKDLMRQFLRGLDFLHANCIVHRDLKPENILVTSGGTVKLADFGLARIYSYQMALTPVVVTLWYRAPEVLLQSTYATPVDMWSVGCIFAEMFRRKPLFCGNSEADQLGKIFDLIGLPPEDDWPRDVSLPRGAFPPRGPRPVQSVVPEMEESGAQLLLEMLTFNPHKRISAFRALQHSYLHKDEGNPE
T2 sequence (P30281 whole entry partner): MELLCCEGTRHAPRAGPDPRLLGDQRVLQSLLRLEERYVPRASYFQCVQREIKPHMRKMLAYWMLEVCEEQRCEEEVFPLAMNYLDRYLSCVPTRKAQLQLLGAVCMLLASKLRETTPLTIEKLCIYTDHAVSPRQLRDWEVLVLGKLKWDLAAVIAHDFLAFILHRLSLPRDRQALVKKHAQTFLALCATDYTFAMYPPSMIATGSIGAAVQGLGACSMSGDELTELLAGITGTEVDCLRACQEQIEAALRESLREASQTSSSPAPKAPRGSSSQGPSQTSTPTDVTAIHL

Row | Structure (SMILES) | IC50 (CDK4/cyclin D3; [2]) [nM] | other results
1 | COCC(C)(C)Nc1nc([C@@H](C)O)cc2cnc(Nc3ccc(CN4CCOCC4(C)C)cn3)nc12 [Compound 298] | 10 to 100 | IC50 (CDK2/cyclin A2; [1]): ≥ 100 nM
2 | CC(C)Nc1nc([C@@H](C)O)cc2cnc(Nc3ccc(CN4CCC[C@H](O)C4)cn3)nc12 [Compound 1199] |  | IC50 (CDK2/cyclin A2; [3]): ≥ 100 nM; IC50 (CDK4/cyclin D3; [4]): < 10 nM
3 | CC1(c2cc3cnc(Nc4ccc5c(n4)CCN(C(=O)CO)C5)nc3c(N[C@H]3CC[C@H](O)CC3)n2)COC1 [Compound 1146] |  | IC50 (CDK2/cyclin A2; [3]): ≥ 100 nM; IC50 (CDK4/cyclin D3; [4]): < 10 nM
4 | CC(C)Nc1nc([C@@H](C)O)cc2cnc(Nc3ccc(N4CCC(OCC(=O)O)CC4)nn3)nc12 [Compound 702] |  | IC50 (CDK2/cyclin A2; [3]): ≥ 100 nM; IC50 (CDK4/cyclin D3; [4]): 10 to 100 nM
5 | C[C@@H](O)c1cc2cnc(Nc3ccc(CN4CCC(CO)CC4)cn3)nc2c(N[C@H]2CC[C@H](O)CC2)n1 [Compound 1151] |  | IC50 (CDK2/cyclin A2; [3]): ≥ 100 nM; IC50 (CDK4/cyclin D3; [4]): < 10 nM
6 | C[C@@H](O)c1cc2cnc(Nc3ccc(CN4CCC[C@H](O)C4)cn3)nc2c(NC(C)(C)C)n1 [Compound 1200] |  | IC50 (CDK2/cyclin A2; [3]): ≥ 100 nM; IC50 (CDK4/cyclin D3; [4]): < 10 nM
7 | CO[C@H](C)c1cc2cnc(Nc3ccc(CN4CCNCC4)cn3)nc2c(NCC(C)C)n1 [Compound 861] |  | IC50 (CDK2/cyclin A2; [3]): ≥ 100 nM; IC50 (CDK4/cyclin D3; [4]): < 10 nM
8 | CC(C)Nc1nc([C@@H](C)O)c(Cl)c2cnc(Nc3ccc(N4CCN(CCO)CCC4=O)cn3)nc12 [Compound 841] |  | IC50 (CDK2/cyclin A2; [3]): ≥ 100 nM; IC50 (CDK4/cyclin D3; [4]): < 10 nM
9 | CO[C@H](C)c1cc2cnc(Nc3ccc(CCCN4CCOCC4=O)cn3)nc2c(NC(C)C)n1 [Compound 192] | 10 to 100 | IC50 (CDK2/cyclin A2; [1]): ≥ 100 nM
10 | CO[C@H](C)c1cc2cnc(Nc3ccc(CN4CCNCC4)cn3)nc2c(NC(C)C2CCOCC2)n1 (some centres unmarked) [Compound 928] |  | IC50 (CDK2/cyclin A2; [3]): ≥ 100 nM; IC50 (CDK4/cyclin D3; [4]): < 10 nM
11 | CC(C)Nc1nc([C@@H](C)O)cc2cnc(Nc3ccc(N4CCN(C(=O)C5CCCO5)CC4)nn3)nc12 (some centres unmarked) [Compound 1184] |  | IC50 (CDK2/cyclin A2; [3]): ≥ 100 nM
12 | CCCNc1nc([C@@H](C)O)cc2cnc(Nc3ccc(CN4CCCC(O)C4)cn3)nc12 (some centres unmarked) [Compound 1082] |  | IC50 (CDK2/cyclin A2; [3]): ≥ 100 nM
13 | CO[C@H](C)c1cc2cnc(Nc3ccc(N4CC5(CCCNC5)C4)cn3)nc2c(NC(C)C)n1 [Compound 477] | < 10 | 
14 | COC(C)c1cc2cnc(Nc3ccc(CN4CCNCC4)cn3)nc2c(NC2CNC(=O)C2)n1 (centres unmarked) [Compound 419] | 10 to 100 | 
15 | CC(C)Nc1nc([C@@H](C)O)cc2cnc(Nc3ccc(OCC4(F)CNC4)cn3)nc12 [Compound 578] | < 10 | 
16 | COC(C)c1cc2cnc(Nc3ccc(CN4CCNCC4)cn3)nc2c(NCC2(C)CC(O)CC(C)(C)C2)n1 (centres unmarked) [Compound 454] | < 10 | 
17 | CO[C@H](C)c1cc2cnc(Nc3ccc(N4CCNC(=O)C(C)(C)C4)cn3)nc2c(NC(C)C)n1 [Compound 514] | 10 to 100 | 
18 | CO[C@H](C)c1cc2cnc(Nc3ccc(N4CCN(CCCC(=O)O)CC4)nn3)nc2c(NC(C)C)n1 [Compound 699] |  | IC50 (CDK4/cyclin D3; [4]): 10 to 100 nM
19 | CO[C@H](C)c1cc2cnc(Nc3ccc(NC4CCNC4)nn3)nc2c(NC(C)C)n1 (some centres unmarked) [Compound 357] | < 10 | 
20 | CO[C@H](C)c1cc2cnc(Nc3ccc(N4CC5(CCNC5)C4)cn3)nc2c(NC(C)C)n1 [Compound 479] | < 10 | 
21 | CC(C)Nc1nc([C@@H](C)O)cc2cnc(Nc3ccc(O[C@H]4CCCNC4)cn3)nc12 [Compound 565] | < 10 | 
22 | CO[C@H](C)c1cc2cnc(Nc3ccc(N4C[C@@H]5C[C@H]4CN5)cn3)nc2c(NC(C)C)n1 [Compound 525] | < 10 | 
23 | COC(C)c1cc2cnc(Nc3ccc(CN4CCNCC4)cn3)nc2c(NCC2CCCC(O)C2)n1 (centres unmarked) [Compound 402] | < 10 | 
24 | CC(C)Nc1nc([C@@H](C)O)cc2cnc(Nc3ccc(N4CCCNCC4)nn3)nc12 [Compound 496] | < 10 | 
25 | COC(C)c1cc2cnc(Nc3ccc(CN4CCNCC4)cn3)nc2c(NC23CC4CC(CC(O)(C4)C2)C3)n1 (centres unmarked) [Compound 455] | < 10 | 

Row | Structure (SMILES) | IC50 (CDK4/cyclin D3; [2]) [nM] | other results
26 | CO[C@H](C)c1cc2cnc(Nc3ccc(NC4CC5(CNC5)C4)cn3)nc2c(NC(C)C)n1 [Compound 485] | < 10 | 
27 | CO[C@H](C)c1cc2cnc(Nc3ccc(N4CCCNCC4)nn3)nc2c(NC(C)C)n1 [Compound 495] | < 10 | 
28 | CNCCCOc1ccc(Nc2ncc3cc([C@@H](C)O)nc(NC(C)C)c3n2)nn1 [Compound 530] | < 10 | 
29 | CC(C)Nc1nc([C@@H](C)O)cc2cnc(Nc3ccc(OC4CNC4)cn3)nc12 [Compound 568] | < 10 | 
30 | CO[C@H](C)c1cc2cnc(Nc3ccc(CN4CCCNCC4)cn3)nc2c(NC(C)C)n1 [Compound 493] | < 10 | 
31 | COC(C)c1cc2cnc(Nc3ccc(CN4CCNCC4)cn3)nc2c(N[C@H]2CC[C@@](C)(C(=O)O)CC2)n1 (some centres unmarked) [Compound 437] | ≥ 100 | 
32 | COC(C)c1cc2cnc(Nc3ccc(CN4CCNCC4)cn3)nc2c(NC2CCC(=O)NC2)n1 (centres unmarked) [Compound 421] | 10 to 100 | 
33 | CNCCCOc1ccc(Nc2ncc3cc([C@@H](C)O)nc(NC(C)C)c3n2)nc1 [Compound 528] | < 10 | 
34 | COC(C)c1cc2cnc(Nc3ccc(CN4CCNCC4)cn3)nc2c(NC2CCCC(O)C2)n1 (centres unmarked) [Compound 397] | < 10 | 
35 | CNCCCOc1ccc(Nc2ncc3cc([C@@H](C)OC)nc(NC(C)C)c3n2)nn1 [Compound 527] | 10 to 100 | 
36 | CC(O)c1cc2cnc(Nc3ccc(OCCN(C)C)cn3)nc2c(NC2CCC(C)(C)OC2)n1 (single isomer, unassigned) [Compound 690] |  | IC50 (CDK4/cyclin D3; [4]): < 10 nM
37 | COC(C)c1cc2cnc(Nc3ccc(CN4CCNCC4)cn3)nc2c(NC2CCOC(C)(C)C2)n1 (centres unmarked) [Compound 410] | < 10 | 
38 | CO[C@H](C)c1cc2cnc(Nc3ccc(CN4CCNCC4)cn3)nc2c(NC2CCS(=O)(=O)CC2)n1 [Compound 361] | < 10 | 
39 | CC(C)Nc1nc([C@@H](C)O)cc2cnc(Nc3ccc(OCC4CNC4)cn3)nc12 [Compound 570] | < 10 | 
40 | CC(C)Nc1nc([C@@H](C)O)cc2cnc(Nc3ccc(N4CCNC(=O)C4)nn3)nc12 [Compound 540] | < 10 | 
41 | CC(C)Nc1nc([C@@H](C)O)cc2cnc(Nc3ccc(N4CC5(CNC(=O)C5)C4)nn3)nc12 [Compound 620] | < 10 | 
42 | CC(C)Nc1nc([C@@H](C)O)cc2cnc(Nc3ccc(N4CC(F)(CO)C4)nn3)nc12 [Compound 707] |  | IC50 (CDK4/cyclin D3; [4]): < 10 nM
43 | CC(C)Nc1nc([C@@H](C)O)cc2cnc(Nc3ccc(O[C@@H]4CCNC[C@@H]4F)nn3)nc12 [Compound 564] | < 10 | 
44 | CO[C@H](C)c1cc2cnc(Nc3ncc(N4CCNCC4)cn3)nc2c(NC(C)C)n1 [Compound 374] | 10 to 100 | 
45 | CC(C)Nc1nc([C@@H](C)O)cc2cnc(Nc3ccc(N4CCCN(C)CC4)nn3)nc12 [Compound 490] | < 10 | 
46 | CO[C@H](C)c1cc2cnc(Nc3ccc(CN4CCN(CCC(=O)O)CC4)cn3)nc2c(NC(C)C)n1 [Compound 685] |  | IC50 (CDK4/cyclin D3; [4]): 10 to 100 nM
47 | CC(C)Nc1nc([C@@H](C)O)cc2cnc(Nc3ccc(OC4CCCNC4)nn3)nc12 (some centres unmarked) [Compound 541] | < 10 | 
48 | CO[C@H](C)c1cc2cnc(Nc3ccc(N4CCC(F)(F)CC4)cn3)nc2c(NC(C)C)n1 [Compound 470] | ≥ 100 | 
49 | CO[C@H](C)c1cc2cnc(Nc3ccc(N4CC5(CCN5)C4)cn3)nc2c(NC(C)C)n1 [Compound 478] | < 10 | 
